Assay results as given in patent US10960018B2, “Methods and compounds for stimulating read-through of premature termination codons” (The UAB Research Foundation, priority 2016, dated 2021).
Marks after values point to notes of the source that are not given here.

Key:
FRT G542X^HRP cells = experiment: Horse radish peroxidase (HRP) CFTR cell surface expression assay, G542X; format: cell-based, Rat; details: 48 hours; for FRT G542X HRP RLU Mean ± SE / HRP activity (CFTR cell surface expression) compared to vehicle control: 10 μM
Procedure: To measure cell surface expression of CFTR, FRT cells expressing the fusion protein of G542X CFTR and HRP were treated with 10 μM of lead compounds for 48 hours at 37° C. and 5% CO2. Holding DMSO concentration at 0.3%, FRT cells were washed 4 times in PBS supplemented with 1 mM MgCl2 and 0.1 mM CaCl2 and then incubated with the HRP substrate (Fisher, #PI-34096, 15 μl/well) at room temperature for 10 minutes. The luminescent HRP signal was analyzed via a Synergy NEO microplate reader (BioTek Instruments).
To obtain an additional readout of CFTR function, the effect of the lead compounds on CFTR cell surface expression was evaluated using the HRP assay. FTR G542X cells were incubated with compound (10 μM), G418 (250 μg/mL) or vehicle control (0.3% DMSO) for 48 hours prior to determination of HRP activity. In this assay, an increase in HRP activity indicates the compounds stimulated read-through of the PTC in the constructs tested.

FRT G542X cells = experiment: Transepithelial chloride conductance (TECC) assay in FRT G542X cells; format: cell-based, Rat; details: 48 hours; for FRT G542X TECC Gt Mean ± SE: forskolin-stimulated; for forskolin-stimulated CFTR conductance vs vehicle control: 1 μM to 30 μM, P<0.05
Procedure: Stably transfected FRT cells as described herein cells were seeded onto Costar 24-well […] permeable supports at a density of ˜2×10^6 cells/filter and maintained at 37° C. with 5% CO2. Transepithelial resistance was assessed using an epithelial voltmeter to ensure the formation of tight monolayers, as defined by resistance >6 kcm^2. During initial evaluation of agents, cells were treated with compounds (10 μM), vehicle control (0.3% DMSO), or positive control (250 μg/mL G418) for 48 hours before transepithelial conductance (Gt) was assessed; subsequent studies used other concentrations of compounds. Measurements were taken at baseline, after the addition of 20 μM forskolin (FSK, a cAMP agonist that stimulates CFTR activity) and 10 μM CFTRInh-172 (a CFTR-specific inhibitor).
In the TECC assay, FRT G542X cells were treated with a single dose (10 μM) of each compound. FRT G542X cells were incubated for 48 hours with the compounds prior or vehicle control (0.3% DMSO). During the assay the baseline conductance (Gt) was initially determined prior to the acute addition of forskolin (20 μM) and VX-770 (10 μM) to stimulate CFTR activity; the CFTR inhibitor, CFTRInh-172 (10 μM), was added to inhibit CFTR activity at the end of the assay. In these experiments, an increase in CFTR conductance indicates the compounds stimulated read-through of the PTC in the constructs tested and that the CFTR was functional.
To prioritize which of the 48 read-through-positive compounds identified would be most efficacious in augmenting PTC read-through and restoring protein function, the TECC assay was repeated (in triplicate) using FRT G542X cells and FRT cells without CFTR (parental cells). Compounds (10 μM) or vehicle control (0.3% DMSO) were incubated for 48 hours with the cells. During the assay the baseline conductance (Gt) was initially determined prior to the acute addition of forskolin (20 μM) and VX-770 (10 μM) to stimulate CFTR activity; the CFTR inhibitor, CFTRInh-172 (10 μM), was added to inhibit CFTR activity at the end of the assay. G418 (250 μg/ml) was used as a positive control. In this assay, an increase in CFTR conductance indicates the compound stimulated read-through of the PTC in the constructs tested and that the CFTR was functional. The 48 compounds tested are provided in the Table 1 below (with the numerical designations corresponding to those shown in FIG. 4).
A series of functional assays was performed to evaluate the efficacy of these lead compounds in greater detail. Using FRT G542X cells, the optimal dose of each compound in augmenting chloride conductance (FIG. 5A) was determined. FRT G542X cells were incubated with compound (1 μM to 30 μM), G418 (250 μg/mL) or vehicle control (0.3% DMSO) for 48 hours. The conductance assay was conducted as described in Example 2 above. In this assay, an increase in CFTR conductance indicates the compounds stimulated read-through of the PTC in the constructs tested and that the CFTR was functional.

For COc1cccc2c1C(=O)c1c(O)c3c(c(O)c1C2=O)C[C@@](O)(C(=O)CO)C[C@@H]3O[C@H]1C[C@H](N)[C@H](O)[C@H](C)O1 [Doxorubicin, DOXORUBICIN], the “FRT G542X HRP RLU Mean ± SE” value (FRT G542X^HRP cells) was 26269 ± 1426 RLU, the “HRP activity (CFTR cell surface expression) compared to vehicle control” value (“HRP activity … compared to vehicle control” for short) (FRT G542X^HRP cells) was “significantly higher” and the “FRT G542X TECC Gt Mean ± SE” value (FRT G542X cells; 10 μM) was 0.11 ± 0.01 mS/cm^2.
With CCCOc1ccc2nc(NC(=O)OC)[nH]c2c1 [Oxibendazole, OXIBENDAZOLE] the “FRT G542X HRP RLU Mean ± SE” value (FRT G542X^HRP cells) was 28150 ± 908.6 RLU, the “HRP activity … compared to vehicle control” value (FRT G542X^HRP cells) was “significantly higher” and the “forskolin-stimulated CFTR conductance vs vehicle control” value (FRT G542X cells) was “significantly higher”. The “FRT G542X TECC Gt Mean ± SE” value (FRT G542X cells; 30 μM (footnote c)) was 0.16 ± 0.005****^,c mS/cm^2.
In the case of C[C@@H]1C[C@@H]([C@H](O)CC2CC(=O)NC(=O)C2)C(=O)[C@@H](C)C1 [Cyclohexamide, CYCLOHEXIMIDE], the “FRT G542X HRP RLU Mean ± SE” value (FRT G542X^HRP cells) is reported as 38171 ± 1618 RLU, the “HRP activity … compared to vehicle control” value (FRT G542X^HRP cells) is reported as “significantly higher” and the “forskolin-stimulated CFTR conductance vs vehicle control” value (FRT G542X cells) is reported as “significantly higher”. For the same compound, the “FRT G542X TECC Gt Mean ± SE” value (FRT G542X cells; 3 μM (footnote b)) was 0.13 ± 0.06**^,b mS/cm^2.
In the case of Cc1ccc(NC(=O)C2(c3ccc4c(c3)OC(F)(F)O4)CC2)nc1-c1cccc(C(=O)O)c1 [VX-809], the “CFTR protein expression at the cell surface” value (FRT G542X^HRP cells; escin 10 μM, VX-809 3 μM) is reported as “significant stimulatory effects” and the “CFTR stimulation (conductance) in the presence of forskolin and GP-5” value (FRT G542X cells; escin 10 μM, VX-809 3 μM, GP-5 10 μM, C1+C2 10 μM) is reported as “non-significant effects”.
